According to PubChem BioAssay AID248 (DTP/NCI, 2004):
Values joined by “and” are separate entries in the source; they are usually repeats but may differ in a detail not shown here. Identical values can stand only once. Toxic doses and inconclusive results are not listed. Rule as the data show it: active = T/C of 150% or more; inactive = T/C below 125%.

Test system: L1210 leukemia ip in BDF1 mice, survival T/C
Experiment: NCI In Vivo Anticancer Drug Screen. Data for tumor model L1210 Leukemia (intraperitoneal) in B6D2F1 (BDF1) mice
Conditions: endpoint: mean survival time, higher = longer survival
How it was run: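 Mice bearing the transplanted tumor received compound or vehicle. Survival of the treated group was divided by that of the vehicle-treated control group to give the ratio.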

[1] = dose: 100.0 mg/kg/injection, schedule: Q01DX001 (ip), vehicle: saline
[2] = dose: 100.0 mg/kg/injection, schedule: Q04DX003 (ip), vehicle: saline
[3] = dose: 200.0 mg/kg/injection, schedule: Q01DX001 (ip), vehicle: saline
[4] = dose: 400.0 mg/kg/injection, schedule: Q01DX001 (ip), vehicle: saline
[5] = dose: 400.0 mg/kg/injection, schedule: Q04DX003 (ip), vehicle: saline
[6] = dose: 50.0 mg/kg/injection, schedule: Q04DX003 (ip), vehicle: Klucel (hydroxypropylcellulose) (HPC)
[7] = dose: 100.0 mg/kg/injection, schedule: Q04DX003 (ip), vehicle: Klucel (hydroxypropylcellulose) (HPC)
[8] = dose: 200.0 mg/kg/injection, schedule: Q04DX003 (ip), vehicle: Klucel (hydroxypropylcellulose) (HPC)
[9] = dose: 100.0 mg/kg/injection, schedule: Q04DX002 (ip), vehicle: Klucel (hydroxypropylcellulose) (HPC)
[10] = dose: 200.0 mg/kg/injection, schedule: Q04DX002 (ip), vehicle: Klucel (hydroxypropylcellulose) (HPC)
[11] = dose: 100.0 mg/kg/injection, schedule: Q01DX009 (ip), vehicle: Klucel (hydroxypropylcellulose) (HPC)
[12] = dose: 200.0 mg/kg/injection, schedule: Q01DX009 (ip), vehicle: Klucel (hydroxypropylcellulose) (HPC)
[13] = dose: 400.0 mg/kg/injection, schedule: Q01DX009 (ip), vehicle: Klucel (hydroxypropylcellulose) (HPC)
[14] = dose: 400.0 mg/kg/injection, schedule: Q04DX003 (ip), vehicle: Klucel (hydroxypropylcellulose) (HPC)

Measured: T/C

O=C(Nc1ccccc1)c1ccc(N(CO)CO)cc1
inactive: [1] 98 % of control | [2] 94 % of control | [3] 101 % of control | dose: 200.0 mg/kg/injection, schedule: Q04DX003 (ip), vehicle: saline 120 % of control | [4] 93 % of control | [5] 96 % of control

CC(=O)NC(Cc1ccccc1)C(=O)O (configuration not stated)
inactive: [6] 94 % of control | [7] 103 % of control | [8] 100 % of control

CSC12OCC(O1)C1OC(C)(C)OC(C=O)C1O2 (configuration not stated)
inactive: dose: 50.0 mg/kg/injection, schedule: Q04DX002 (ip), vehicle: saline 92 % of control | dose: 100.0 mg/kg/injection, schedule: Q04DX002 (ip), vehicle: saline 95 % of control

ClCCN1CCN(CCCN2c3ccccc3CCc3ccccc32)CC1
inactive: dose: 12.5 mg/kg/injection, schedule: Q04DX003 (ip), vehicle: saline 106 % of control | dose: 25.0 mg/kg/injection, schedule: Q04DX003 (ip), vehicle: saline 94 % of control | dose: 50.0 mg/kg/injection, schedule: Q04DX003 (ip), vehicle: saline 114 % of control | [2] 102 % of control and 110 % of control | dose: 150.0 mg/kg/injection, schedule: Q04DX003 (ip), vehicle: saline 93 % of control | dose: 225.0 mg/kg/injection, schedule: Q04DX003 (ip), vehicle: saline 103 % of control | dose: 335.0 mg/kg/injection, schedule: Q04DX003 (ip), vehicle: saline 93 % of control and 109 % of control | [5] 101 % of control

O=C(O)COc1nc(Cl)c(Cl)cc1Cl
inactive: [9] 107 % of control | [10] 104 % of control

O=C1C=C(Br)C(=O)C1(Br)Br
inactive: dose: 75.0 mg/kg/injection, schedule: Q01DX001 (sc), vehicle: olive oil, sesame oil, peanut oil 117 % of control

Cc1cc(Cl)c2ccccc2n1
inactive: dose: 37.5 mg/kg/injection, schedule: Q04DX003 (ip), vehicle: saline 103 % of control | dose: 75.0 mg/kg/injection, schedule: Q01DX001 (ip), vehicle: other 108 % of control | dose: 75.0 mg/kg/injection, schedule: Q04DX003 (ip), vehicle: saline 95 % of control

Cc1ccc(S(=O)(=O)OCCc2ccccc2)cc1
inactive: dose: 100.0 mg/kg/injection, schedule: Q01DX009 (ip), vehicle: saline with Tween-80 100 % of control | dose: 100.0 mg/kg/injection, schedule: Q04DX003 (ip), vehicle: saline with Tween-80 102 % of control | dose: 200.0 mg/kg/injection, schedule: Q01DX009 (ip), vehicle: saline with Tween-80 100 % of control | dose: 200.0 mg/kg/injection, schedule: Q04DX003 (ip), vehicle: saline with Tween-80 102 % of control | dose: 400.0 mg/kg/injection, schedule: Q01DX009 (ip), vehicle: saline with Tween-80 96 % of control | dose: 400.0 mg/kg/injection, schedule: Q04DX003 (ip), vehicle: saline with Tween-80 100 % of control

O=C(NC1C=CCCC1)NC1C=CCCC1 (configuration not stated)
inactive: dose: 50.0 mg/kg/injection, schedule: Q01DX001 (ip), vehicle: other 88 % of control | dose: 100.0 mg/kg/injection, schedule: Q01DX001 (ip), vehicle: other 94 % of control | dose: 200.0 mg/kg/injection, schedule: Q01DX001 (ip), vehicle: other 97 % of control | dose: 400.0 mg/kg/injection, schedule: Q01DX001 (ip), vehicle: other 94 % of control

CCOC(=O)CN1CCC(C2(c3cc4ccccc4[nH]3)OCCO2)CC1
inactive: dose: 12.0 mg/kg/injection, schedule: Q04DX003 (ip), vehicle: Klucel (hydroxypropylcellulose) (HPC) 91 % of control | dose: 25.0 mg/kg/injection, schedule: Q04DX003 (ip), vehicle: Klucel (hydroxypropylcellulose) (HPC) 89 % of control | [6] 100 % of control | [11] 97 % of control | [12] 103 % of control | [13] 101 % of control

O=C(O)/C=C\C(=O)Nc1ccccc1[N+](=O)[O-]
inactive: [9] 90 % of control | [10] 114 % of control | dose: 400.0 mg/kg/injection, schedule: Q04DX002 (ip), vehicle: Klucel (hydroxypropylcellulose) (HPC) 104 % of control

COc1cc2c(cc1OC)C(=O)C(Br)N(S(=O)(=O)c1ccc(C)cc1)CC2 (configuration not stated)
inactive: dose: 100.0 mg/kg/injection, schedule: Q01DX009 (ip), vehicle: saline 96 % of control | dose: 200.0 mg/kg/injection, schedule: Q01DX009 (ip), vehicle: saline 97 % of control | dose: 400.0 mg/kg/injection, schedule: Q01DX009 (ip), vehicle: saline 93 % of control

Nc1nc(Cl)c2nnn(C3CC(O)C(CO)C3)c2n1 (configuration not stated)
inactive: dose: 25.0 mg/kg/injection, schedule: Q01DX009 (ip), vehicle: Klucel (hydroxypropylcellulose) (HPC) 118 % of control | dose: 50.0 mg/kg/injection, schedule: Q01DX009 (ip), vehicle: Klucel (hydroxypropylcellulose) (HPC) 105 % of control | [11] 100 % of control

Nc1cccc(-c2nc3[nH]ncc3c(=O)[nH]2)c1
inactive: dose: 25.0 mg/kg/injection, schedule: Q01DX001 (ip), vehicle: Klucel (hydroxypropylcellulose) (HPC) 100 % of control | dose: 50.0 mg/kg/injection, schedule: Q01DX001 (ip), vehicle: Klucel (hydroxypropylcellulose) (HPC) 98 % of control | dose: 100.0 mg/kg/injection, schedule: Q01DX001 (ip), vehicle: Klucel (hydroxypropylcellulose) (HPC) 93 % of control

COC(=O)CCCN1C(=O)c2ccccc2C1=O
inactive: dose: 100.0 mg/kg/injection, schedule: Q04DX002 (ip), vehicle: carboxymethylcellulose (CMC) 102 % of control and 87 % of control | dose: 100.0 mg/kg/injection, schedule: Q04DX003 (ip), vehicle: carboxymethylcellulose (CMC) 94 % of control | dose: 200.0 mg/kg/injection, schedule: Q04DX002 (ip), vehicle: carboxymethylcellulose (CMC) 97 % of control and 91 % of control | dose: 200.0 mg/kg/injection, schedule: Q04DX003 (ip), vehicle: carboxymethylcellulose (CMC) 92 % of control | dose: 400.0 mg/kg/injection, schedule: Q04DX002 (ip), vehicle: carboxymethylcellulose (CMC) 93 % of control and 90 % of control | dose: 400.0 mg/kg/injection, schedule: Q04DX003 (ip), vehicle: carboxymethylcellulose (CMC) 99 % of control

Cn1cc(C2=CC(=O)C=CC2=O)c2ccccc21
inactive: dose: 5.0 mg/kg/injection, schedule: Q01DX001 (ip), vehicle: saline 102 % of control | dose: 10.0 mg/kg/injection, schedule: Q01DX001 (ip), vehicle: saline 111 % of control | dose: 20.0 mg/kg/injection, schedule: Q01DX001 (ip), vehicle: saline 104 % of control | dose: 40.0 mg/kg/injection, schedule: Q01DX001 (ip), vehicle: saline 98 % of control

CO/N=C1/C=C(C)C(=O)C(C)=C1C
inactive: dose: 50.0 mg/kg/injection, schedule: Q01DX001 (ip), vehicle: saline 94 % of control | [1] 97 % of control | [11] 102 % of control | [7] 97 % of control | [3] 105 % of control | [12] 98 % of control | [8] 92 % of control | [4] 94 % of control | [13] 95 % of control | [14] 101 % of control

CCOC(=O)n1cnc(N)n1
inactive: [11] 104 % of control | [12] 104 % of control | [13] 107 % of control

NCOC(=O)Cc1ccc(Br)cc1
inactive: [11] 98 % of control | [7] 96 % of control | [12] 101 % of control | [8] 101 % of control | [13] 96 % of control | [14] 101 % of control
